The target of series [1] is CAAX prenyl protease 2 (Homo sapiens, UniProt Q9Y256). The experiment in a line: inhibition of Ras-converting CAAX protease Rce1 – biochemical, yeast membranes, quenched-peptide fluorescence, cherry-pick, dose response (AID 588849).
A further series deals with Trypsin (Sus scrofa, UniProt P00761). Description: trypsin protease activity blockade – biochemical, quenched peptide fluorescence, cherry-pick, selectivity assay for Rce1 protease inhibitor project, dose response (AID 488789).
Trypsin, sequence (P00761 whole entry): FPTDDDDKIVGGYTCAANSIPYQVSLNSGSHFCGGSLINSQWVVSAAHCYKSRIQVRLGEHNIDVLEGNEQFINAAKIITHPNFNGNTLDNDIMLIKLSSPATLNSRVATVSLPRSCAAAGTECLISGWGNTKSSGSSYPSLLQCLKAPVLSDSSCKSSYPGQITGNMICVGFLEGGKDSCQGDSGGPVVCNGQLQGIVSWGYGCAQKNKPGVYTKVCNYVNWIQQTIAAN
In series [2] the target is Voltage-gated inwardly rectifying potassium channel KCNH2 (Homo sapiens, UniProt Q12809). As to conditions: Potency.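 Further: confirmatory quantitative high-throughput screen measuring inhibition of hERG channel activity.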
Voltage-gated inwardly rectifying potassium channel KCNH2, sequence (Q12809 whole entry): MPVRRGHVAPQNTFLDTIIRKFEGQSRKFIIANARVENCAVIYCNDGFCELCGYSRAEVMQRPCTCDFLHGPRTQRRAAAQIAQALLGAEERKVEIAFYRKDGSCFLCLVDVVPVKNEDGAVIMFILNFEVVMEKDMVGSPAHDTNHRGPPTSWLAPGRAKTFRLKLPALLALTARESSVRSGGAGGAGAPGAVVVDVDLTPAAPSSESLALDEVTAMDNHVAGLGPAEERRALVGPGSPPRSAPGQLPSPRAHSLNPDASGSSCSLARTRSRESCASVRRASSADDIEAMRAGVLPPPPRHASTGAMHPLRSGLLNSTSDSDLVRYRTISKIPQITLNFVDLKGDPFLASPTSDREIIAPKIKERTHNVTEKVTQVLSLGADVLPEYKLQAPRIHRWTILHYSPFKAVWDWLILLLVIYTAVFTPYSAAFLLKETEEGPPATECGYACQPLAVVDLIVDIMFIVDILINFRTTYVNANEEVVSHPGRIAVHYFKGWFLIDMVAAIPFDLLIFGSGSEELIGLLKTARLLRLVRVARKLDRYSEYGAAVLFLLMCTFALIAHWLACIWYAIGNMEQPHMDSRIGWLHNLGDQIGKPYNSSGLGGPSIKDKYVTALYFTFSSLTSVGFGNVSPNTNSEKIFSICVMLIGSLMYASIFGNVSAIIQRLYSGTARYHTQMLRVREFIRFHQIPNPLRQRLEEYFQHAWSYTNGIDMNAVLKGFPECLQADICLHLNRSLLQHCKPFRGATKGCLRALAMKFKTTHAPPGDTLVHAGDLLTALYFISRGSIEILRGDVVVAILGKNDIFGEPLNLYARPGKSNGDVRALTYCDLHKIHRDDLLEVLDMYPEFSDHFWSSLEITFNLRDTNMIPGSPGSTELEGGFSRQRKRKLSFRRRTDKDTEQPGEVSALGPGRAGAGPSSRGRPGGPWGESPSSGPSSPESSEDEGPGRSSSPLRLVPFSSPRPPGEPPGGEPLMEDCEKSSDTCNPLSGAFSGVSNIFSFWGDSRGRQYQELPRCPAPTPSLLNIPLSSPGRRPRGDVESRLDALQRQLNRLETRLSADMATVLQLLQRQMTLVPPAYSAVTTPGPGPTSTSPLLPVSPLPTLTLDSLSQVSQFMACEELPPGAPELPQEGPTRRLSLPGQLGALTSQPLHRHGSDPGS
Series [3] has as its target T1, Type-1 angiotensin II receptor (Homo sapiens, UniProt P30556).
T1 sequence (P30556 whole entry): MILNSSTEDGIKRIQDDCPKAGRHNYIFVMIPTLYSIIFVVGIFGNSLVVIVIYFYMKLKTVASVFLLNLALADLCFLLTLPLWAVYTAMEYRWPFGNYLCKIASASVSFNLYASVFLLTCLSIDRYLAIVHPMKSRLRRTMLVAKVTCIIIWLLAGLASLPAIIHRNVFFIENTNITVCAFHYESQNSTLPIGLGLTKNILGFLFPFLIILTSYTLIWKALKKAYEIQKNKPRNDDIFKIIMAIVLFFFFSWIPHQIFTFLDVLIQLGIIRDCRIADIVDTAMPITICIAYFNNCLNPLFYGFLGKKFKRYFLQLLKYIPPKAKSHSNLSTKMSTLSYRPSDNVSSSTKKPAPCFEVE
Description: antagonism of angiotensin II type 1 receptor – cell-based, uHTS hits, selectivity assay for APJ receptor antagonist project, dose response (AID 463214).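 Further: antagonist potency against angiotensin II stimulated AT1 response.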 The series is classed as functional.

The target of series [4] is T2, Beta-galactosidase (Escherichia coli, UniProt Q8VNN2). Description: PubChem AID 485352. In kind it is functional.
T2 sequence (Q8VNN2 whole entry): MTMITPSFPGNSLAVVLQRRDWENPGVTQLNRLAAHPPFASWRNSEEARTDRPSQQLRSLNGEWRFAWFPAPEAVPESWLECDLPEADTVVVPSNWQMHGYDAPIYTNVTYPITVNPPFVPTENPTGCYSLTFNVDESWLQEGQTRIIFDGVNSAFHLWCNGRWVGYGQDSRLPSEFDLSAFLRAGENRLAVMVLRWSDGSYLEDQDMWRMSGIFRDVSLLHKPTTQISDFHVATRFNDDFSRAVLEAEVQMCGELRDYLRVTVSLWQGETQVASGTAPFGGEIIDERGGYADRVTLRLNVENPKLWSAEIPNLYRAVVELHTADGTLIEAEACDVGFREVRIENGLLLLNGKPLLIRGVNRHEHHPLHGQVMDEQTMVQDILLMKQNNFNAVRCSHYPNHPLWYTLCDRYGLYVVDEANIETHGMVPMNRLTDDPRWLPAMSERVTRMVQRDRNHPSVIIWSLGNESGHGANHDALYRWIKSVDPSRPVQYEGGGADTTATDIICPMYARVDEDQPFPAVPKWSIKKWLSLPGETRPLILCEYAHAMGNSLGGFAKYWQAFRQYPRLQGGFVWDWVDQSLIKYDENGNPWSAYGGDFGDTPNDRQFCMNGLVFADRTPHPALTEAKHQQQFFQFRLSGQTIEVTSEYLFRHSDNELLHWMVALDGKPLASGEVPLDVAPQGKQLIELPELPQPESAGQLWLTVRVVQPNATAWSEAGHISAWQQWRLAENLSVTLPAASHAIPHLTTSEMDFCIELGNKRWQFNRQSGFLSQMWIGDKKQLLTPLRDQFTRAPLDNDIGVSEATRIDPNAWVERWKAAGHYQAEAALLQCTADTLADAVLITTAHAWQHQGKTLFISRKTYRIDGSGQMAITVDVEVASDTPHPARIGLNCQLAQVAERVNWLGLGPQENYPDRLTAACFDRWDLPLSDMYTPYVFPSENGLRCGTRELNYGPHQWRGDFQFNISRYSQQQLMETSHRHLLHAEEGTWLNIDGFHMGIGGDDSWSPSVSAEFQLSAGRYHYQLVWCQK
For series [5], the target named is T3, Kappa-type opioid receptor (Homo sapiens, UniProt P41145). The series is classed as functional.
T3 sequence (P41145 whole entry): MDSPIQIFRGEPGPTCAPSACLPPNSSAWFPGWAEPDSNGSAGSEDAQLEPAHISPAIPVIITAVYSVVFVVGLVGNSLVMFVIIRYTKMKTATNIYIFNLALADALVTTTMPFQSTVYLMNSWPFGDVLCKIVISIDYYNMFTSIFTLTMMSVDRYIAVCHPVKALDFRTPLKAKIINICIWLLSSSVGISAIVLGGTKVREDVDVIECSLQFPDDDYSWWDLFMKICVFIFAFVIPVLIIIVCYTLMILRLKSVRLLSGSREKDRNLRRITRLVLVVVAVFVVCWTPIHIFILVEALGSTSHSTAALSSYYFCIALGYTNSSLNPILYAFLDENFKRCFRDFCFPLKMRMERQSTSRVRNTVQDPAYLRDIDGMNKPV
Series [6] addresses T3, Kappa-type opioid receptor. The series is classed as functional. This is another data set of the same source.
The nature of series [7]: Trypanosoma cruzi growth suppression in host cells – NIH3T3 host cells, beta-gal luminescence, confirmation (AID 2044).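 Further: intracellular parasites grown in NIH/3T3 mouse fibroblasts as host cells; luminescent beta-galactosidase reporter signal from transgenic T. cruzi replicating inside host cells; inhibitors lower the luminescence signal.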 In kind it is functional, cell-based.
Series [8] concerns the target T2, Beta-galactosidase. In kind it is functional.
For series [9], the target named is T4, Delta-type opioid receptor (Homo sapiens, UniProt P41143). Description: HTS Image-Based Screen for Antagonists of the DOR Receptor. [Related pubchem assays (depositor defined):AID1777, AID1785, AID1786, AID2133]. In kind it is functional.
For series [10], the target named is T4, Delta-type opioid receptor. The experiment in a line: HTS Image-Based Screen for Agonists of the DOR Receptor. [Related pubchem assays (depositor defined):AID1777, AID1786, AID2133]. In kind it is functional.
The nature of series [11]: NIH3T3 cell viability loss – ATP luminescence, mouse fibroblasts, counter-screen, dose response (AID 2010).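 Further: cells exposed to compound for about 90 hours before reading.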 In kind it is functional, cell-based. A general note: The purpose of a counterscreen is to sort out artefacts and off-target activity.
Another series has as its target Mu-type opioid receptor (Homo sapiens, UniProt P35372). Description: HTS Image-Based Screen for Agonists of the MOR Receptor. [Related pubchem assays (depositor defined):AID1777, AID1785, AID1786, AID2133]. In kind it is functional.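 Further: imaging of beta-arrestin GFP recruitment into spots after receptor activation.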
Another series has as its system HeLa. Description: ATP-based viability loss in HeLa cells – cell-based, CellTiter-Glo luminescence, cherry-pick samples, cytotoxicity control for MITF activator project, dose response (AID 540259). As to conditions: Homo sapiens. In kind it is functional.
Series [12] has as its target Nucleotide-binding oligomerization domain-containing protein 1 (Homo sapiens, UniProt Q9Y239). Description: blockers of NOD1 pathway activity – revised, SAR follow-up (AID 2333). In kind it is functional.
Series [13] deals with HEK293. The experiment in a line: cells. As to conditions: Homo sapiens.
The next series has as its target Tumor necrosis factor (Homo sapiens, UniProt P01375). The experiment in a line: analog potency on TNFa NF-kB signaling – cell-based, revised, SAR follow-up (AID 2337). In kind it is functional.
Series [14] deals with T5, Microphthalmia-associated transcription factor (Homo sapiens, UniProt O75030).
T5 sequence (O75030 whole entry): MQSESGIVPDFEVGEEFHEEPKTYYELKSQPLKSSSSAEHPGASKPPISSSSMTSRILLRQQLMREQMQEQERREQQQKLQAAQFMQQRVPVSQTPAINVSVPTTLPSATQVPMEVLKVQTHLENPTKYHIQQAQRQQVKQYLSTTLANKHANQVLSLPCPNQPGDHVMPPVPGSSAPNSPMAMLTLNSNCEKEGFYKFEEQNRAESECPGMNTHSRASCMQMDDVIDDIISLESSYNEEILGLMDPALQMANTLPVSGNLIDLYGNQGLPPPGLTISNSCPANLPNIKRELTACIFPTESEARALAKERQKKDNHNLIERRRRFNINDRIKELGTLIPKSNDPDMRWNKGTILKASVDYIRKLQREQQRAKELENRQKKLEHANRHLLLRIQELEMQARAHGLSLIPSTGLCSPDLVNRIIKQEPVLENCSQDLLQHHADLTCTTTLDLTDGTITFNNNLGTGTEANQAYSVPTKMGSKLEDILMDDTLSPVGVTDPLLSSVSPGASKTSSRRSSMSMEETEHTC
The experiment in a line: reducers of TRPM1 reporter luminescence, concentration series – cell-based, SK-MEL-5, cherry-picked, set 3, MITF inhibitor project, dose response (AID 493073).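 Further: SK-MEL-5 melanoma cells with luciferase driven by the MITF target TRPM1 promoter.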 In kind it is functional.

The test system of another series is A-375. Description: proliferation inhibition in MITF-low A375 cells – cell-based, cherry-pick samples, set 2, counter-screen for MITF modulator project, dose response (AID 540335). The series is classed as functional. As to conditions: Homo sapiens.
For series [15], the system named is HEK293. Description: cells. As to conditions: Homo sapiens. The source holds these as a separate data set.
In series [16] the test system is HEK293. Description: cells. As to conditions: Homo sapiens. This is another data set of the same source.
In series [17] the test system is BJ. Description: cells. In kind it is functional, cell-based. As to conditions: Homo sapiens.
Series [18] has as its system BJ. Description: BJ-TERT fibroblast viability loss – cell-based, RAS-independent, luminescence, dose response (AID 1933). In kind it is functional. As to conditions: Homo sapiens.
In series [19] the test system is BJ. Description: BJ-TERT-LT-ST fibroblast viability loss – cell-based, RAS-independent, luminescence, dose response (AID 1935).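 Further: BJ fibroblasts immortalized with TERT plus LT and ST oncogenes.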 In kind it is functional. As to conditions: Homo sapiens.
A short description of series [20]: DRD fibroblast viability loss – cell-based, non-viral oncogenic, luminescence, dose response (AID 1934). As to conditions: Homo sapiens. In kind it is functional.
Series [21] addresses T6, Heat shock factor protein 1 (Mus musculus, UniProt P38532).
T6 sequence (P38532 whole entry): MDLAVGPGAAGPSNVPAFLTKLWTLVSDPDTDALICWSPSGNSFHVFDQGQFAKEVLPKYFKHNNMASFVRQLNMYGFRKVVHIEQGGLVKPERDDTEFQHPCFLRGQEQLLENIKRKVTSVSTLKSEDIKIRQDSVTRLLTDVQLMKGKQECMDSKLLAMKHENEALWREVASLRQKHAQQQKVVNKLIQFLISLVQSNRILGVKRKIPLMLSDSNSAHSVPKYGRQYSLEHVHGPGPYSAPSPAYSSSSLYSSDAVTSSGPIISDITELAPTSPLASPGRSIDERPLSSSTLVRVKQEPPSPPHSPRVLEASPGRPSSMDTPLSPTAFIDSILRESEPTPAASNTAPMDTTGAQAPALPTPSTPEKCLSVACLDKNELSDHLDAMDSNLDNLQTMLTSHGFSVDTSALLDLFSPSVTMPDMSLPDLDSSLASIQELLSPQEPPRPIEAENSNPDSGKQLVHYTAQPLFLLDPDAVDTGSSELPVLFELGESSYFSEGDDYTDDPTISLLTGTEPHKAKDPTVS
The experiment in a line: enhancement of HSF1-driven luciferase signal – cell-based, NIH3T3, luminescence, dose retest, confirmation (AID 435004).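 Further: stress induced by proteasome inhibitor MG132 added 30 min after compound; luciferase reporter driven by HSF1 response element in NIH3T3 cells; actives raise luminescence as potentiators of the MG132 stress response.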 The series is classed as functional.

In a further series the target is Cytochrome P450 2D6 (Homo sapiens, UniProt P10635).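 Further: CYP2D6 member of a cytochrome P450 panel assay.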
Cytochrome P450 2D6, sequence (P10635 whole entry): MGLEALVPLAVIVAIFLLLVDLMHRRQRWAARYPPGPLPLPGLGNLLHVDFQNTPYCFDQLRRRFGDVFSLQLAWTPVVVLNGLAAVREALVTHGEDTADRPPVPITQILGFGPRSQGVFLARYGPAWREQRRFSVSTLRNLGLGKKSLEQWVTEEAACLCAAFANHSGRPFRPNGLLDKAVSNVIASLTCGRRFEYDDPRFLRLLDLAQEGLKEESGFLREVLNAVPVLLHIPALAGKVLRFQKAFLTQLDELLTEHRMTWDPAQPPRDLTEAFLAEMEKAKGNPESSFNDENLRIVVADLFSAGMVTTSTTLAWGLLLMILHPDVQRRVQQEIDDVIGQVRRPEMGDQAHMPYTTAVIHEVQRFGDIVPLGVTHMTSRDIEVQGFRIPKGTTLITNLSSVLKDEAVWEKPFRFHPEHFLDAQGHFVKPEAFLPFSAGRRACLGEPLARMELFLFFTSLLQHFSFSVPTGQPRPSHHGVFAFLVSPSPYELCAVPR
The target of series [22] is T7, CAAX prenyl protease 2 (Saccharomyces cerevisiae S288c, UniProt Q03530).
T7 sequence (Q03530 whole entry): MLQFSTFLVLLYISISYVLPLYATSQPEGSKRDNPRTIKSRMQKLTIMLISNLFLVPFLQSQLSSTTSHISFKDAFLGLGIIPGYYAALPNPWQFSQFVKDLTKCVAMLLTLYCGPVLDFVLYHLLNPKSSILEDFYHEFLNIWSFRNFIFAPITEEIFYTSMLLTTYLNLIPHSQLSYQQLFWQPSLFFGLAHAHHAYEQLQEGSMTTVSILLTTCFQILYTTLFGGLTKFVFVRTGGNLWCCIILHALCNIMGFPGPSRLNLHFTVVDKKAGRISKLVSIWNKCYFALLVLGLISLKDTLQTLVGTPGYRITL
The series is classed as biochemical.

Active and inactive are the calls of the source.

These results are taken from ChEMBL document CHEMBL1201862, “PubChem BioAssay data set” (2004).

CAAX prenyl protease 2 (Homo sapiens, UniProt Q9Y256), sequence (Q9Y256 whole entry): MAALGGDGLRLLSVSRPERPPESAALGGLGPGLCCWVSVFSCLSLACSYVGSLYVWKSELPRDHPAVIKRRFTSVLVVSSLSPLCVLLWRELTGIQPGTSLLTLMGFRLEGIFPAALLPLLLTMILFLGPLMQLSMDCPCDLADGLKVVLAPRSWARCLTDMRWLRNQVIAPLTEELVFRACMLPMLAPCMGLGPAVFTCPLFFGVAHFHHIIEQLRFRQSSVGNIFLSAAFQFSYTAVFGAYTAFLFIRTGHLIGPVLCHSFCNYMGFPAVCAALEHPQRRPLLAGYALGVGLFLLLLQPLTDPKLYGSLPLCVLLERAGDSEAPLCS
Tumor necrosis factor, sequence (P01375 whole entry): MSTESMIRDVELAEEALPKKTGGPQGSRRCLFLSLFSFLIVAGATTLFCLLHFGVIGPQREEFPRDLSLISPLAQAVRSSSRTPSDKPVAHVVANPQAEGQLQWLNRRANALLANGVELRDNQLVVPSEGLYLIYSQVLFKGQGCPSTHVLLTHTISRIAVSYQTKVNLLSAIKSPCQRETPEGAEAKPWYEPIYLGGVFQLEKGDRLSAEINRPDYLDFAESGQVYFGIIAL
Nucleotide-binding oligomerization domain-containing protein 1, sequence (Q9Y239 whole entry, the tested form may be a part): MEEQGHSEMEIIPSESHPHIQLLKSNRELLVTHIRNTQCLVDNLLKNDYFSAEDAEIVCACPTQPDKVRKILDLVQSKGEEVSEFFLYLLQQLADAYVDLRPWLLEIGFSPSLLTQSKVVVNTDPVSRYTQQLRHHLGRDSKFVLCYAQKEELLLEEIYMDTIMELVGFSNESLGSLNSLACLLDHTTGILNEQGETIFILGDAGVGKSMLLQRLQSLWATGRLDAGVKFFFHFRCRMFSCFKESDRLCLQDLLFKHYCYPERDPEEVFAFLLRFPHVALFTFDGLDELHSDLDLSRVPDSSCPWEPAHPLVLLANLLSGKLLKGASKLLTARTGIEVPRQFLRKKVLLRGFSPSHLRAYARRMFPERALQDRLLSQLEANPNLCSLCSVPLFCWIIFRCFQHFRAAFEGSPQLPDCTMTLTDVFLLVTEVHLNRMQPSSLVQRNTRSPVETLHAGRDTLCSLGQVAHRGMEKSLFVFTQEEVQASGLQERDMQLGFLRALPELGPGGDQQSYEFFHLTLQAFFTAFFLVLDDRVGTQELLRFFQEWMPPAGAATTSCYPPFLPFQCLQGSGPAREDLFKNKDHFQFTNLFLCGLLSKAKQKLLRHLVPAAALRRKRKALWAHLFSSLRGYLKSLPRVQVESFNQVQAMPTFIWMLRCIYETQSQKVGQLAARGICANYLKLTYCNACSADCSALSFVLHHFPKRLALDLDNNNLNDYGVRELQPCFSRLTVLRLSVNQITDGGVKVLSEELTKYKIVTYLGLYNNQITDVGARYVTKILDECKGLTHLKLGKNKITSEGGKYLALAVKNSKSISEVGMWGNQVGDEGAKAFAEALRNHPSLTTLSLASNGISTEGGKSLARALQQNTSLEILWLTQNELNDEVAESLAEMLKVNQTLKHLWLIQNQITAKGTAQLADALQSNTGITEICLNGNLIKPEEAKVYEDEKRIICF

In general, AC50 refers to the midpoint of the concentration-response curve, whichever way the signal moves. `COc1ccccc1Oc1c(C)oc2c(CN3CCN(CCO)CC3)c(O)ccc2c1=O`: the concentration at half-maximal activity (AC50) is 2.48 µM (active) on CAAX prenyl protease 2 [1] and 5.25 µM (active) at Trypsin.

`N=C(N)SCCc1cccc(CCSC(=N)N)c1`: the concentration at half-maximal activity (AC50) in series [2] is 20 µM (inconclusive).

By IC50 is commonly meant the midpoint of a concentration-inhibition curve. The term EC50 denotes the concentration that produces a half-maximal response. As for `Cc1ccc2oc(Nc3nc(O)cc(-c4ccccc4)n3)nc2c1`, the IC50 was 3.99 µM (active) in series [3], 11.9 µM (active) in series [5], above 32 µM in series [6] and > 32 µM (inactive) in series [9]. Besides, the EC50 on Beta-galactosidase [4] is > 40 µM (inactive); in series [7], 1.62 µM (active); at Beta-galactosidase [8], > 31.5 µM (inactive); in [10], > 32 µM (inactive); in [11], > 30 µM (not active); on Mu-type opioid receptor, > 32 µM (inactive).

Take `COc1cccc(NC(=O)Nc2ccc3c(c2)nnn3C)c1`: the AC50 in the series with HeLa is > 350 µM (inactive).

On to `CCOc1ccc(C(=O)Nc2ccc(CN3CCc4ccccc4C3)cc2)cc1`, for which the IC50 (in [12]; in the series with HEK293 [13]; at Tumor necrosis factor) was > 20 µM (inactive) throughout.

As for `CCCCn1c(=N)n(CCOc2ccc(C)cc2)c2ccccc21`, the AC50 in [14] was 11.3 µM (active); with A-375 it was 18.3 µM (active).

Turning to `CC1=C([N+](=O)[O-])C(c2cccc(Br)c2)C2=C(O)c3ccccc3C2=N1` (stereo unspecified), the EC50 in the series with HEK293 [15] and with HEK293 [16] was > 59.6 µM (inactive) in each case.

In the case of `Cc1ccc(N2CCN(S(=O)(=O)c3ccc4c(c3)CC(C)N4C(=O)C3CC3)CC2)cc1` (stereo unspecified), the IC50 (in [12]; with HEK293 [13]; at Tumor necrosis factor) was > 20 µM (inactive) in each case.

Regarding `CN(C)c1nc(C=C(C#N)C#N)c(Cl)n1-c1ccc(F)cc1`, the EC50 in the series with HEK293 [15] was > 59.6 µM (inactive); in the series on BJ [17], 5 µM (active); in the series with BJ [18], 4.83 µM (active); in the series with BJ [19] it was 5.12 µM (inconclusive); in series [20] it was 4.24 µM (active); in the series on HEK293 [16], > 59.6 µM (inactive). The EC50 in [21] was 27.8 µM (active). For the same compound, the AC50 in series [14] is 3.92 µM (active).

As for `Cc1ccccc1NC(=O)Cc1nc(COC(=O)c2ccc(S(C)(=O)=O)c([N+](=O)[O-])c2)cs1`, the AC50 in series [14] was 12.8 µM (active); in the series with A-375, 28.2 µM (active).

With `CCN1CCN(c2cc(=O)n(-c3cc(Cl)ccc3C)c(=O)[nH]2)CC1`, the AC50 result at Cytochrome P450 2D6 is on record as “inconclusive”.

For the compound `CC(C)(C)C(=O)C[n+]1ccc(C(N)=O)cc1`, the AC50 was 12.5 µM (active) on CAAX prenyl protease 2 [1], 15.1 µM (active) at CAAX prenyl protease 2 [22] and 13.4 µM (active) on Trypsin.

On to `COc1cc(CC(C)N)c(OC)cc1I` (stereo unspecified), for which, in series [2], the half-maximal activity concentration (AC50) was 15.8 µM (inconclusive).

Regarding `CC(c1ccccc1)c1nnc(NC(=O)Nc2ccccc2F)s1` (stereo unspecified), in the series on HeLa, the half-maximal activity concentration (AC50) was 52.5 µM (active).

For `NCCCc1c(-c2ccccc2)nc(N)[nH]c1=O`, the AC50 result at Cytochrome P450 2D6 is “inconclusive”.
